Reference: PubChem BioAssay AID1259407 (Chemical Carcinogenesis Research Information System (CCRIS), 2018)
Activity calls are given as the source filed them. How the calls were made is not given here.

System: CCRIS mutagenicity, Ames/micronucleus/aberration tests
Assay: CCRIS mutagenicity studies
[1] = Test System: AMES SALMONELLA TYPHIMURIUM, Strain/Indicator: TA98, Metabolic Activation: NONE, Method: STANDARD PLATE

## [Si]
Test System: AMES SALMONELLA TYPHIMURIUM, Strain/Indicator: TA98, Metabolic Activation: RAT LIVER S-9, PHENOBARBITAL AND BETA-NAPHTHOFLAVONE, Method: GAS EXPOSURE
  mutagenic call: active; positive
Test System: AMES SALMONELLA TYPHIMURIUM, Strain/Indicator: TA98, Metabolic Activation: RAT, LIVER, S-9, PHENOBARBITAL AND 5,6-BENZOFLAVONE, Method: GAS EXPOSURE
  mutagenic call: active; positive
Test System: AMES SALMONELLA TYPHIMURIUM, Strain/Indicator: TA100, Metabolic Activation: NONE, Method: GAS EXPOSURE
  mutagenic call: inactive; negative
Test System: AMES SALMONELLA TYPHIMURIUM, Strain/Indicator: TA100, Metabolic Activation: RAT LIVER S-9, PHENOBARBITAL AND BETA-NAPHTHOFLAVONE, Method: GAS EXPOSURE
  mutagenic call: inactive; negative
Test System: AMES SALMONELLA TYPHIMURIUM, Strain/Indicator: TA100, Metabolic Activation: RAT, LIVER, S-9, PHENOBARBITAL AND 5,6-BENZOFLAVONE, Method: GAS EXPOSURE
  mutagenic call: inactive; negative
Test System: AMES SALMONELLA TYPHIMURIUM, Strain/Indicator: TA1535, Metabolic Activation: NONE, Method: GAS EXPOSURE
  mutagenic call: inactive; negative
Test System: AMES SALMONELLA TYPHIMURIUM, Strain/Indicator: TA1535, Metabolic Activation: RAT LIVER S-9, PHENOBARBITAL AND BETA-NAPHTHOFLAVONE, Method: GAS EXPOSURE
  mutagenic call: inactive; negative
Test System: AMES SALMONELLA TYPHIMURIUM, Strain/Indicator: TA1535, Metabolic Activation: RAT, LIVER, S-9, PHENOBARBITAL AND 5,6-BENZOFLAVONE, Method: GAS EXPOSURE
  mutagenic call: inactive; negative
Test System: AMES SALMONELLA TYPHIMURIUM, Strain/Indicator: TA1537, Metabolic Activation: RAT, LIVER, S-9, PHENOBARBITAL AND 5,6-BENZOFLAVONE, Method: GAS EXPOSURE
  mutagenic call: active; positive
Test System: E. COLI, Strain/Indicator: WP2 UVRA, Metabolic Activation: NONE, Method: GAS EXPOSURE
  mutagenic call: inactive; negative
Test System: E. COLI, Strain/Indicator: WP2 UVRA, Metabolic Activation: RAT, LIVER, S-9, PHENOBARBITAL AND 5,6-BENZOFLAVONE, Method: GAS EXPOSURE
  mutagenic call: inactive; negative
Test System: E.COLI, Strain/Indicator: WP2UVRA, Metabolic Activation: NONE, Method: GAS EXPOSURE
  mutagenic call: inactive; negative
Test System: E.COLI, Strain/Indicator: WP2UVRA, Metabolic Activation: RAT LIVER S-9, PHENOBARBITAL AND BETA-NAPHTHOFLAVONE, Method: GAS EXPOSURE
  mutagenic call: inactive; negative

## Oc1cc(O)c2c(c1)O[C@H](c1ccc(O)c(O)c1)[C@H](O)C2
Test System: Ames Salmonella typhimurium, Strain/Indicator: TA102, Metabolic Activation: None, Method: Preincubation
  mutagenic call: inactive; negative
Test System: Ames Salmonella typhimurium, Strain/Indicator: TA102, Metabolic Activation: Rat, Liver, S-9, Aroclor 1254 in 0.154 M KCl, Method: Preincubation
  mutagenic call: inactive; negative

## CC(=O)[O-].CC(=O)[O-].O.O.O.O.[Co+2]
End Point: In vitro chromosomal aberrations, Test System: Chinese hamster lung (CHL/IU) cells, Metabolic Activation: None
  mutagenic call: active; positive (structural changes)
End Point: In vitro chromosomal aberrations, Test System: Chinese hamster lung (CHL/IU) cells, Metabolic Activation: Rat, Liver, S9, Phenobarbital and 5,6-benzoflavone
  mutagenic call: active; positive (structural changes)
Test System: Ames Salmonella typhimurium, Strain/Indicator: TA98, Metabolic Activation: Rat, Liver, S9, Sodium phenobarbital and 5,6-benzoflavone (10%), Method: Preincubation
  mutagenic call: inactive; negative
Test System: Ames Salmonella typhimurium, Strain/Indicator: TA100, Metabolic Activation: Rat, Liver, S9, Sodium phenobarbital and 5,6-benzoflavone (10%), Method: Preincubation
  mutagenic call: inactive; negative
Test System: Ames Salmonella typhimurium, Strain/Indicator: TA1535, Metabolic Activation: None, Method: Preincubation
  mutagenic call: inactive; negative
Test System: Ames Salmonella typhimurium, Strain/Indicator: TA1535, Metabolic Activation: Rat, Liver, S9, Sodium phenobarbital and 5,6-benzoflavone (10%), Method: Preincubation
  mutagenic call: inactive; negative
Test System: Ames Salmonella typhimurium, Strain/Indicator: TA1537, Metabolic Activation: Rat, Liver, S9, Sodium phenobarbital and 5,6-benzoflavone (10%), Method: Preincubation
  mutagenic call: inactive; negative
Test System: E. coli, Strain/Indicator: WP2uvrA/pKM101, Metabolic Activation: None, Method: Preincubation
  mutagenic call: active; positive
Test System: E. coli, Strain/Indicator: WP2uvrA/pKM101, Metabolic Activation: Rat, Liver, S9, Sodium phenobarbital and 5,6-benzoflavone (10%), Method: Preincubation
  mutagenic call: inactive; negative

## Clc1cccc(-c2nc3ccccc3o2)c1
[1]
  mutagenic call: inactive; negative

## O=C1C=C2C(=CCOC2O)O1 (stereo not given)
End Point: In vitro micronucleus, Test System: Human hepatoma HepG2 cells, Metabolic Activation: None
  mutagenic call: active; positive. depletion of glutathione increased patulin-induced micronuclei frequen
Test System: AMES SALMONELLA TYPHIMURIUM, Strain/Indicator: TA98, Metabolic Activation: RAT, LIVER, MICROSOMES, PHENOBARBITAL, Method: STANDARD PLATE
  mutagenic call: inactive; negative
Test System: AMES SALMONELLA TYPHIMURIUM, Strain/Indicator: TA100, Metabolic Activation: NONE, Method: PREINCUBATION
  mutagenic call: inactive; negative
Test System: AMES SALMONELLA TYPHIMURIUM, Strain/Indicator: TA100, Metabolic Activation: RAT, LIVER, MICROSOMES, PHENOBARBITAL, Method: STANDARD PLATE
  mutagenic call: inactive; negative
Test System: AMES SALMONELLA TYPHIMURIUM, Strain/Indicator: TA100, Metabolic Activation: RAT, LIVER, S-9, PHENOBARBITAL, Method: PREINCUBATION
  mutagenic call: inactive; negative
Test System: AMES SALMONELLA TYPHIMURIUM, Strain/Indicator: TA102, Metabolic Activation: NONE, Method: STANDARD PLATE
  mutagenic call: inactive; negative
Test System: AMES SALMONELLA TYPHIMURIUM, Strain/Indicator: TA102, Metabolic Activation: RAT, LIVER, S-9, AROCLOR 1254, Method: STANDARD PLATE
  mutagenic call: inactive; negative

## C[C@H](CCC(=O)O)[C@H]1CC[C@H]2[C@@H]3CC[C@@H]4C[C@H](O)CC[C@]4(C)[C@H]3CC(=O)[C@]12C
Test System: AMES SALMONELLA TYPHIMURIUM, Strain/Indicator: TA98, Metabolic Activation: NONE, Method: FLUCTUATION TEST
  mutagenic call: inactive; negative
Test System: AMES SALMONELLA TYPHIMURIUM, Strain/Indicator: TA98, Metabolic Activation: NONE, Method: PREINCUBATION
  mutagenic call: inactive; negative
Test System: AMES SALMONELLA TYPHIMURIUM, Strain/Indicator: TA98, Metabolic Activation: RAT, LIVER, S-9, PCB, Method: PREINCUBATION
  mutagenic call: inactive; negative
Test System: AMES SALMONELLA TYPHIMURIUM, Strain/Indicator: TA100, Metabolic Activation: NONE, Method: FLUCTUATION TEST
  mutagenic call: inactive; negative

## COc1cc2c(CCNC(C)=O)c[nH]c2cc1O
Test System: AMES SALMONELLA TYPHIMURIUM, Strain/Indicator: TA97, Metabolic Activation: NONE, Method: STANDARD PLATE
  mutagenic call: inactive; negative
Test System: AMES SALMONELLA TYPHIMURIUM, Strain/Indicator: TA97, Metabolic Activation: RAT, LIVER, S-9, AROCLOR 1254, Method: STANDARD PLATE
  mutagenic call: inactive; negative
[1]
  mutagenic call: inactive; negative
Test System: AMES SALMONELLA TYPHIMURIUM, Strain/Indicator: TA98, Metabolic Activation: RAT, LIVER, S-9, AROCLOR 1254, Method: STANDARD PLATE
  mutagenic call: inactive; negative
Test System: AMES SALMONELLA TYPHIMURIUM, Strain/Indicator: TA100, Metabolic Activation: NONE, Method: STANDARD PLATE
  mutagenic call: inactive; negative
Test System: AMES SALMONELLA TYPHIMURIUM, Strain/Indicator: TA100, Metabolic Activation: RAT, LIVER, S-9, AROCLOR 1254, Method: STANDARD PLATE
  mutagenic call: inactive; negative

## C=CCOc1ccccc1OCC(O)CN(N=O)C(C)C (stereo not given)
Test System: CHINESE HAMSTER V-79, Strain/Indicator: V-79/6-THIOGUANINE, Metabolic Activation: NONE, Method: REPLATING
  mutagenic call: inactive; negative
Test System: CHINESE HAMSTER V-79, Strain/Indicator: V-79/6-THIOGUANINE, Metabolic Activation: RAT, HEPATOCYTES, Method: REPLATING
  mutagenic call: active; positive
Test System: CHINESE HAMSTER V-79, Strain/Indicator: V-79/OUABAIN, Metabolic Activation: NONE
  mutagenic call: inactive; negative
Test System: CHINESE HAMSTER V-79, Strain/Indicator: V-79/OUABAIN, Metabolic Activation: RAT, HEPATOCYTES
  mutagenic call: inactive; negative
Test System: UDS HUMAN HEPATOCYTES, Strain/Indicator: THY INCORP, Metabolic Activation: NONE, Method: AUTORADIOGRAPHY
  mutagenic call: active; positive
Test System: UDS RAT HEPATOCYTES, Strain/Indicator: THY INCORP, Metabolic Activation: NONE, Method: AUTORADIOGRAPHY
  mutagenic call: active; positive

## Cc1ccc2nc(N)[nH]c2c1
Test System: AMES SALMONELLA TYPHIMURIUM, Strain/Indicator: TA98, Metabolic Activation: RAT, LIVER, S-9, AROCLOR 1254, Method: PREINCUBATION
  mutagenic call: active; positive
Test System: AMES SALMONELLA TYPHIMURIUM, Strain/Indicator: TA100, Metabolic Activation: RAT, LIVER, S-9, AROCLOR 1254, Method: PREINCUBATION
  mutagenic call: inactive; negative
